Reference: patent US20100298141A1, “SUBSTITUTED PYRIDINE N-OXIDE HERBICIDES” (E. I. DU PONT DE NEMOURS AND COMPANY, priority 2007, published 2010)

Legend:
morningglory = test: Test A pre-/postemergence greenhouse test; assay type: in vivo, Ipomoea spp.; conditions: for Plant response rating, Morningglory: 0 to 100 scale where 0 is no effect and 100 is complete control; for Morningglory plant response rating: 0 to 100 scale
Summary of the method: (§1)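 Test compounds in non-phytotoxic solvent with surfactant were applied as a preemergence soil spray to seeded loam/sand pots and, concurrently, postemergence to plants at 2–10 cm, one- to two-leaf stage. About ten days in greenhouse, then injury visually rated against untreated controls.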

wheat = test: Test A pre-/postemergence greenhouse test; assay type: in vivo, Triticum aestivum; conditions: for Plant response rating, Wheat: 0 to 100 scale where 0 is no effect and 100 is complete control; for Wheat plant response rating: 0 to 100 scale
Summary of the method: as §1

barnyardgrass [1] = test: Test C flooded paddy test; assay type: in vivo, Echinochloa crus-galli; conditions: Flood
Summary of the method: (§2)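 Under a constant 3 cm flood, test compounds went directly into the paddy water. Following 13 to 15 days of greenhouse growth, treated species and controls were compared by eye.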

rice = test: Test C flooded paddy test; assay type: in vivo, Oryza sativa; conditions: Flood
Summary of the method: as §2

crabgrass = test: Test A pre-/postemergence greenhouse test; assay type: in vivo, Digitaria sanguinalis; conditions: for Plant response rating, Crabgrass, Large: 0 to 100 scale where 0 is no effect and 100 is complete control; for Crabgrass, Large plant response rating: 0 to 100 scale
Summary of the method: as §1

corn = test: Test A pre-/postemergence greenhouse test; assay type: in vivo, Zea mays; conditions: for Plant response rating, Corn: 0 to 100 scale where 0 is no effect and 100 is complete control; for Corn plant response rating: 0 to 100 scale
Summary of the method: as §1

duck salad = test: Test C flooded paddy test; assay type: in vivo, Heteranthera limosa; conditions: Flood
Summary of the method: as §2

umbrella sedge = test: Test C flooded paddy test; assay type: in vivo, Cyperus difformis; conditions: Flood
Summary of the method: as §2

velvetleaf = test: Test A pre-/postemergence greenhouse test; assay type: in vivo, Abutilon theophrasti; conditions: for Plant response rating, Velvetleaf: 0 to 100 scale where 0 is no effect and 100 is complete control; for Velvetleaf plant response rating: 0 to 100 scale
Summary of the method: as §1

barnyardgrass [2] = test: Test A pre-/postemergence greenhouse test; assay type: in vivo, Echinochloa crus-galli; conditions: for Plant response rating, Barnyardgrass: 0 to 100 scale where 0 is no effect and 100 is complete control; for Barnyardgrass plant response rating: 0 to 100 scale
Summary of the method: as §1

redroot pigweed = test: Test A pre-/postemergence greenhouse test; assay type: in vivo, Amaranthus retroflexus; conditions: for Plant response rating, Pigweed: 0 to 100 scale where 0 is no effect and 100 is complete control; for Pigweed plant response rating: 0 to 100 scale
Summary of the method: as §1

giant foxtail = test: Test A pre-/postemergence greenhouse test; assay type: in vivo, Setaria faberi; conditions: for Plant response rating, Foxtail, Giant: 0 to 100 scale where 0 is no effect and 100 is complete control; for Foxtail, Giant plant response rating: 0 to 100 scale
Summary of the method: as §1

[3] = Postemergence, 500 g ai/ha, 0 is no effect, 100 is complete control
[4] = Preemergence, 125 g ai/ha, 0 no effect, 100 complete control
[5] = 62 g ai/ha, scale 0 to 100, 0 no effect, 100 complete control, 13 to 15 days
[6] = 250 g ai/ha, scale 0 to 100, 0 no effect, 100 complete control, 13 to 15 days
[7] = Preemergence, 500 g ai/ha, 0 no effect, 100 complete control
[8] = 62 g ai/ha, scale 0 to 100 (0 no effect, 100 complete control)

| Compound | Plant response rating, Morningglory (morningglory; Postemergence, 125 g ai/ha) | Morningglory plant response rating (morningglory; [3]) | Plant response rating, Wheat (wheat; Postemergence, 125 g ai/ha) | Wheat plant response rating (wheat; [3]) | Wheat plant response rating (wheat; [4]) | Plant response rating, Barnyardgrass (barnyardgrass [1]; [6]) | Plant response rating, Rice (rice; [6]) | Plant response rating, Crabgrass, Large (crabgrass; Postemergence, 125 g ai/ha) | Crabgrass, Large plant response rating (crabgrass; [3]) | Crabgrass, Large plant response rating (crabgrass; [4]) | Plant response rating, Corn (corn; Postemergence, 125 g ai/ha) | Corn plant response rating (corn; [3]) | Corn plant response rating (corn; [4]) | Plant response rating, Ducksalad (duck salad; [6]) | Plant response rating, Sedge, Umbrella (umbrella sedge; [6]) | Plant response rating, Velvetleaf (velvetleaf; Postemergence, 125 g ai/ha) | Velvetleaf plant response rating (velvetleaf; [3]) | Velvetleaf plant response rating (velvetleaf; [4]) | Plant response rating, Barnyardgrass (barnyardgrass [2]; Postemergence, 125 g ai/ha) | Barnyardgrass plant response rating (barnyardgrass [2]; [3]) | also measured |
| --- | --- | --- | --- | --- | --- | --- | --- | --- | --- | --- | --- | --- | --- | --- | --- | --- | --- | --- | --- | --- | --- |
| [O-][n+]1ccccc1[S+]([O-])Cc1c(C(F)(F)F)nn(CC(F)(F)F)c1Cl (stereo not shown) [Compound 43] | 30 | 80 | 40 | 60 | 40 | 60 | 30 | 70 | 80 | 70 | 30 | 50 | 0 | 60 | 70 | 20 | 60 | 30 | 50 | 80 | Morningglory plant response rating (morningglory; [4]): 0; Plant response rating, Morningglory (morningglory; Preemergence, 500 g ai/ha): 80; Plant response rating, Wheat (wheat; Preemergence, 500 g ai/ha): 70; Plant response rating, Barnyardgrass (barnyardgrass [1]; [5]): 0; Plant response rating, Rice (rice; [5]): 0; Plant response rating, Crabgrass, Large (crabgrass; Preemergence, 500 g ai/ha): 90; Plant response rating, Corn (corn; Preemergence, 500 g ai/ha): 50; Plant response rating, Ducksalad (duck salad; [5]): 0; Plant response rating, Sedge, Umbrella (umbrella sedge; [5]): 30; Plant response rating, Velvetleaf (velvetleaf; Preemergence, 500 g ai/ha): 50; Barnyardgrass plant response rating (barnyardgrass [2]; [4]): 70; Plant response rating, Barnyardgrass (barnyardgrass [2]; Preemergence, 500 g ai/ha): 90; Plant response rating, Pigweed (redroot pigweed; Postemergence, 125 g ai/ha): 30; Pigweed plant response rating (redroot pigweed; [3]): 60; Pigweed plant response rating (redroot pigweed; [4]): 0; Plant response rating, Pigweed (redroot pigweed; Preemergence, 500 g ai/ha): 90; Plant response rating, Foxtail, Giant (giant foxtail; Postemergence, 125 g ai/ha): 70; Foxtail, Giant plant response rating (giant foxtail; [3]): 90; Foxtail, Giant plant response rating (giant foxtail; [4]): 80; Plant response rating, Foxtail, Giant (giant foxtail; Preemergence, 500 g ai/ha): 90 |
| CC(C)c1cc[n+]([O-])c([S+]([O-])Cc2c(C(F)(F)F)nn(C)c2OCC(F)(F)F)c1 (stereo not shown) [Compound 104] | 30 | 100 | 50 | 60 | 50 | 20 | 15 | 40 | 90 | 80 | 50 | 70 | 40 | 80 | 80 | 50 | 70 | 40 | 50 | 90 | Morningglory plant response rating (morningglory; [4]): 50; Morningglory plant response rating (morningglory; [7]): 100; Wheat plant response rating (wheat; [7]): 100; Plant response rating, Barnyardgrass (barnyardgrass [1]; [8]): 0; Plant response rating, Rice (rice; [8]): 10; Crabgrass, Large plant response rating (crabgrass; [7]): 100; Corn plant response rating (corn; [7]): 70; Plant response rating, Ducksalad (duck salad; [8]): 30; Plant response rating, Sedge, Umbrella (umbrella sedge; [8]): 0; Velvetleaf plant response rating (velvetleaf; [7]): 80; Barnyardgrass plant response rating (barnyardgrass [2]; [4]): 40; Barnyardgrass plant response rating (barnyardgrass [2]; [7]): 100; Plant response rating, Pigweed (redroot pigweed; Postemergence, 125 g ai/ha): 50; Pigweed plant response rating (redroot pigweed; [3]): 90; Pigweed plant response rating (redroot pigweed; [4]): 90; Pigweed plant response rating (redroot pigweed; [7]): 100; Plant response rating, Foxtail, Giant (giant foxtail; Postemergence, 125 g ai/ha): 80; Foxtail, Giant plant response rating (giant foxtail; [3]): 90; Foxtail, Giant plant response rating (giant foxtail; [4]): 90; Foxtail, Giant plant response rating (giant foxtail; [7]): 100 |
| Cc1cc[n+]([O-])c([S+]([O-])Cc2c(C(F)(F)C(F)(F)F)nn(C)c2OCC(F)(F)F)c1 (stereo not shown) [Compound 91] | 20 | 100 | 60 | 80 | 40 | 70 | 70 | 50 | 80 | 20 | 20 | 80 | 10 | 100 | 100 | 30 | 80 | 0 | 70 | 90 | Morningglory plant response rating (morningglory; [4]): 40; Plant response rating, Morningglory (morningglory; Preemergence, 500 g ai/ha): 100; Wheat plant response rating (wheat; [7]): 100; Plant response rating, Barnyardgrass (barnyardgrass [1]; [8]): 0; Plant response rating, Rice (rice; [8]): 0; Plant response rating, Crabgrass, Large (crabgrass; Preemergence, 500 g ai/ha): 100; Plant response rating, Corn (corn; Preemergence, 500 g ai/ha): 90; Plant response rating, Ducksalad (duck salad; [8]): 45; Plant response rating, Sedge, Umbrella (umbrella sedge; [8]): 75; Velvetleaf plant response rating (velvetleaf; [7]): 100; Barnyardgrass plant response rating (barnyardgrass [2]; [4]): 20; Plant response rating, Barnyardgrass (barnyardgrass [2]; Preemergence, 500 g ai/ha): 100; Plant response rating, Pigweed (redroot pigweed; Postemergence, 125 g ai/ha): 50; Pigweed plant response rating (redroot pigweed; [3]): 60; Pigweed plant response rating (redroot pigweed; [4]): 90; Plant response rating, Pigweed (redroot pigweed; Preemergence, 500 g ai/ha): 100; Plant response rating, Foxtail, Giant (giant foxtail; Postemergence, 125 g ai/ha): 80; Foxtail, Giant plant response rating (giant foxtail; [3]): 90; Foxtail, Giant plant response rating (giant foxtail; [4]): 90; Plant response rating, Foxtail, Giant (giant foxtail; Preemergence, 500 g ai/ha): 100 |
| Cc1cc(S(=O)(=O)Cc2c(C(F)(F)F)nn(C)c2OCC(F)(F)F)[n+]([O-])cc1Cl [Compound 71] | 0 | 30 | 30 | 50 | 0 | 20 | 60 | 30 | 70 | 50 | 0 | 30 | 20 | 70 | 30 | 20 | 50 | 0 | 40 | 80 | Morningglory plant response rating (morningglory; [4]): 0; Plant response rating, Morningglory (morningglory; Preemergence, 500 g ai/ha): 10; Plant response rating, Wheat (wheat; Preemergence, 500 g ai/ha): 40; Plant response rating, Barnyardgrass (barnyardgrass [1]; [8]): 20; Plant response rating, Rice (rice; [8]): 30; Plant response rating, Crabgrass, Large (crabgrass; Preemergence, 500 g ai/ha): 100; Plant response rating, Corn (corn; Preemergence, 500 g ai/ha): 20; Plant response rating, Ducksalad (duck salad; [8]): 0; Plant response rating, Sedge, Umbrella (umbrella sedge; [8]): 0; Plant response rating, Velvetleaf (velvetleaf; Preemergence, 500 g ai/ha): 30; Barnyardgrass plant response rating (barnyardgrass [2]; [4]): 40; Plant response rating, Barnyardgrass (barnyardgrass [2]; Preemergence, 500 g ai/ha): 90; Plant response rating, Pigweed (redroot pigweed; Postemergence, 125 g ai/ha): 50; Pigweed plant response rating (redroot pigweed; [3]): 70; Pigweed plant response rating (redroot pigweed; [4]): 70; Plant response rating, Pigweed (redroot pigweed; Preemergence, 500 g ai/ha): 100; Plant response rating, Foxtail, Giant (giant foxtail; Postemergence, 125 g ai/ha): 40; Foxtail, Giant plant response rating (giant foxtail; [3]): 80; Foxtail, Giant plant response rating (giant foxtail; [4]): 90; Plant response rating, Foxtail, Giant (giant foxtail; Preemergence, 500 g ai/ha): 100 |
| Cn1nc(C(F)(F)F)c(C[S+]([O-])c2ccc(Cl)c[n+]2[O-])c1OCC(F)(F)C(F)(F)F (stereo not shown) [Compound 89] | 40 | 90 | 60 | 70 | 30 | 90 | 60 | 50 | 90 | 90 | 50 | 80 | 30 | 100 | 100 | 30 | 80 | 10 | 70 | 90 | Plant response rating, Morningglory (morningglory; Preemergence, 500 g ai/ha): 90; Wheat plant response rating (wheat; [7]): 90; Plant response rating, Barnyardgrass (barnyardgrass [1]; [8]): 0; Plant response rating, Rice (rice; [8]): 0; Plant response rating, Crabgrass, Large (crabgrass; Preemergence, 500 g ai/ha): 90; Plant response rating, Corn (corn; Preemergence, 500 g ai/ha): 90; Plant response rating, Ducksalad (duck salad; [8]): 40; Plant response rating, Sedge, Umbrella (umbrella sedge; [8]): 0; Velvetleaf plant response rating (velvetleaf; [7]): 100; Barnyardgrass plant response rating (barnyardgrass [2]; [4]): 40; Plant response rating, Barnyardgrass (barnyardgrass [2]; Preemergence, 500 g ai/ha): 100; Plant response rating, Pigweed (redroot pigweed; Postemergence, 125 g ai/ha): 50; Pigweed plant response rating (redroot pigweed; [3]): 100; Pigweed plant response rating (redroot pigweed; [4]): 80; Plant response rating, Pigweed (redroot pigweed; Preemergence, 500 g ai/ha): 100; Plant response rating, Foxtail, Giant (giant foxtail; Postemergence, 125 g ai/ha): 80; Foxtail, Giant plant response rating (giant foxtail; [3]): 90; Foxtail, Giant plant response rating (giant foxtail; [4]): 80; Plant response rating, Foxtail, Giant (giant foxtail; Preemergence, 500 g ai/ha): 100 |
